Measured values published in US10363257B2 (ZENITH EPIGENETICS LTD., priority 2013, dated 2019).

Legend:
human AML MV-4-11 cells = experiment: Inhibition of cell proliferation in MV4-11 cells (CellTiter Aqueous One); type: cell-based; conditions: for IC50: MV4-11, 72 h; for Cell Proliferation activity: 72 h
Outline: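 Exponentially growing MV-4-11 cells (5×10^4/well) were treated immediately with two-fold dilutions of compound from 30 μM to 0.2 μM, in triplicate, for 72 h at 37° C, 5% CO2. Viability was measured by MTS absorbance at 490 nm after 3–4 h. Proliferation relative to DMSO after blank correction gave IC50.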

hIL-6 mRNA = experiment: Inhibition of hIL-6 mRNA transcription in LPS-stimulated U937 cells; type: cell-based; conditions: Homo sapiens, U-937; PMA-differentiated U937 cells, 1 h pretreatment, 1 ug/mL LPS stimulation, 3 h; read-out: IL-6 activity (Inhibition of hIL-6 mRNA Transcription)
Description: In this example, hIL-6 mRNA in tissue culture cells was quantitated to measure the transcriptional inhibition of hIL-6 when treated with a compound of the invention.
Human leukemic monocyte lymphoma U937 cells (CRL-1593.2) were plated at a density of 3.2×10^4 cells per well in a 96-well plate in 100 μL RPMI-1640 containing 10% FBS and penicillin/streptomycin, and differentiated into macrophages for 3 days in 60 ng/mL PMA ([…]) at 37° C. in 5% CO2 prior to the addition of compound. The cells were pretreated for 1 h with increasing concentrations of test compound in 0.1% DMSO prior to stimulation with 1 ug/mL lipopolysaccharide from Escherichia coli. Triplicate wells were used for each concentration. The cells were incubated at 37° C., 5% CO2 for 3 h before the cells were harvested. At time of harvest, media was removed and cells were rinsed in 200 μL PBS. Cells were harvested using the mRNA Catcher PLUS kit according to manufacturer's instructions. The eluted mRNA was then used in a one-step quantitative real-time PCR reaction using components of the RNA UltraSense™ One-Step Kit (Life Technologies) together with Applied Biosystems TaqMan® primer-probes for hIL-6 and Cyclophilin. Real-time PCR plates were run on a VIa™ 7 real time PCR machine (Applied Biosystems), data was analyzed, normalizing the Ct values for hIL-6 to an internal control, prior to determining the fold expression of each sample, relative to the control.

c-myc = experiment: Inhibition of c-myc expression (mRNA, real-time PCR) in MV4-11 cells; type: cell-based; conditions: Human AML MV4-11 cells, 3 h, cMYC mRNA
Outline: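 MV4-11 cells treated 3 h at 37° C with increasing compound concentrations or 0.1% DMSO, in triplicate. cMYC mRNA quantified by one-step TaqMan real-time PCR, Ct normalized to internal control (Cyclophilin primers used), fold expression relative to control.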

[1] = target: T1, Brd4 bromodomain 1 (BRD4(1)) (Homo sapiens, UniProt O60885); experiment: Inhibition of tetra-acetylated histone H4 binding to Brd4 bromodomain 1 (TR-FRET); conditions: tetra-acetylated histone H4 peptide, first bromodomain of Brd4
T1 construct: made in house; host or cells: E. coli BL21(DE3)
Outline: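 His-tagged BRD4(1) from E. coli (200 nM) with biotinylated tetra-acetylated H4 peptide (25-50 nM), Eu-cryptate streptavidin and XL665 anti-His, in HEPES pH 7.4/phosphate/KF buffer, 0.2% DMSO. After 2 h at room temperature, TR-FRET 665/620 nm ratio read; IC50 from dose-response curves.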

Structure (SMILES) | IC50 (human AML MV-4-11 cells) [µM] | IC50 (hIL-6 mRNA) [µM] | IC50 (c-myc) [µM] | IC50 [1] [µM] | Cell Proliferation activity (human AML MV-4-11 cells)
Cc1noc(C)c1-c1cnc2nc(C3CCOCC3)n(Cc3ccccc3)c2c1 [compound 220, 4-(1-benzyl-2-(tetrahydro-2H-pyran-4-yl)-1H-imidazo[4,5-b]pyridin-6-yl)-3,5-dimethylisoxazole] | 0.3 to 3 | 0.3 to 3 | 3 to 30 | ≤ 0.3 | 
Cc1noc(C)c1-c1cnc2ccn(Cc3ccc(F)cc3)c2n1 [Example Compound 50, 4-(5-(4-fluorobenzyl)-5H-pyrrolo[2,3-b]pyrazin-3-yl)-3,5-dimethylisoxazole] | 3 to 30 | 0.3 to 3 | 3 to 30 | ≤ 0.3 | 
COc1ccc(Cn2c(C)nc3ncc(-c4c(C)noc4C)cc32)cc1 [Example Compound 62, 4-(1-(4-methoxybenzyl)-2-methyl-1H-imidazo[4,5-b]pyridin-6-yl)-3,5-dimethylisoxazole] | 0.3 to 3 | 0.3 to 3 | 0.3 to 3 | ≤ 0.3 | 
Cc1noc(C)c1-c1cc(Br)c2nc(C)n(Cc3ccccc3)c2c1 [compound 121, 4-(1-benzyl-4-bromo-2-methyl-1H-benzo[d]imidazol-6-yl)-3,5-dimethylisoxazole] | ≤ 0.3 | 0.3 to 3 | ≤ 0.3 | ≤ 0.3 | 
Cc1noc(C)c1-c1cnc2nc(NC3CCOCC3)n(CC3CCC3)c2c1 [compound 223, 1-(cyclobutylmethyl)-6-(3,5-dimethylisoxazol-4-yl)-N-(tetrahydro-2H-pyran-4-yl)-1H-imidazo[4,5-b]pyridin-2-amine] | 0.3 to 3 | 0.3 to 3 | ≤ 0.3 | ≤ 0.3 | 
Cc1noc(C)c1-c1cc(N)c2[nH]c(=O)n(Cc3ccc(O)cc3)c2c1 [compound 129, 4-amino-6-(3,5-dimethylisoxazol-4-yl)-1-(4-hydroxybenzyl)-1H-benzo[d]imidazol-2(3H)-one] | 0.3 to 3 | ≤ 0.3 | ≤ 0.3 | ≤ 0.3 | 
Cc1noc(C)c1-c1cc(N)c2ncn(Cc3ccc(F)cc3)c2c1 [Example Compound 27, 6-(3,5-dimethylisoxazol-4-yl)-1-(4-fluorobenzyl)-1H-benzo[d]imidazol-4-amine] | 0.3 to 3 | 0.3 to 3 | 0.3 to 3 | ≤ 0.3 | 
CC(=O)Nc1cn(Cc2ccccc2)c2cc(-c3c(C)noc3C)cnc12 [compound 99, N-(1-benzyl-6-(3,5-dimethylisoxazol-4-yl)-1H-pyrrolo[3,2-b]pyridin-3-yl)acetamide] | 0.3 to 3 | 0.3 to 3 | 0.3 to 3 | ≤ 0.3 | 
Cc1cnn(C)c1-c1cc(N)c2nc(C)n(Cc3ccccc3)c2c1 [compound 82, 1-benzyl-6-(1,4-dimethyl-1H-pyrazol-5-yl)-2-methyl-1H-benzo[d]imidazol-4-amine] | 3 to 30 | 0.3 to 3 | 0.3 to 3 | 0.3 to 3 | 
Cc1noc(C)c1-c1cc([N+](=O)[O-])c2nc(C)n(CC3CCCC3)c2c1 [compound 117, 4-(1-(cyclopentylmethyl)-2-methyl-4-nitro-1H-benzo[d]imidazol-6-yl)-3,5-dimethylisoxazole] | ≤ 0.3 | ≤ 0.3 | ≤ 0.3 | ≤ 0.3 | 
Cc1noc(C)c1-c1cnc2nc(C)n(Cc3cccs3)c2c1 [compound 69, 3,5-dimethyl-4-(2-methyl-1-(thiophen-2-ylmethyl)-1H-imidazo[4,5-b]pyridin-6-yl)isoxazole] | 0.3 to 3 | 0.3 to 3 | 0.3 to 3 | ≤ 0.3 | 
Cc1noc(C)c1-c1cnc2c(N)cn(Cc3ccccc3)c2c1 [compound 100, 1-benzyl-6-(3,5-dimethylisoxazol-4-yl)-1H-pyrrolo[3,2-b]pyridin-3-amine] | 0.3 to 3 | 0.3 to 3 | 0.3 to 3 | ≤ 0.3 | 
Cc1noc(C)c1-c1ccc2c(c1)N(Cc1ccccc1)CC(=O)N2 [compound 156, 4-benzyl-6-(3,5-dimethylisoxazol-4-yl)-3,4-dihydroquinoxalin-2(1H)-one] | 0.3 to 3 | 0.3 to 3 | 0.3 to 3 | ≤ 0.3 | 
Cc1noc(C)c1-c1cnc2nc(C)n(Cc3ccc(F)cc3)c2c1 [Example Compound 58, 4-(1-(4-fluorobenzyl)-2-methyl-1H-imidazo[4,5-b]pyridin-6-yl)-3,5-dimethylisoxazole] | 0.3 to 3 | 0.3 to 3 | 0.3 to 3 | ≤ 0.3 | 
Cc1noc(C)c1-c1cnc2nc(C)n(Cc3ccc(C(N)=O)cc3)c2c1 [Example Compound 38, 4-((6-(3,5-dimethylisoxazol-4-yl)-2-methyl-1H-imidazo[4,5-b]pyridin-1-yl)methyl)benzamide] |  | 3 to 30 | 3 to 30 | ≤ 0.3 | Not active
Cc1noc(C)c1-c1cc(N)c2nc(C)n(CC3CCCC3)c2c1 [compound 133, 1-(cyclopentylmethyl)-6-(3,5-dimethylisoxazol-4-yl)-2-methyl-1H-benzo[d]imidazol-4-amine] | 0.3 to 3 | ≤ 0.3 | ≤ 0.3 | ≤ 0.3 | 
Cc1noc(C)c1-c1cc([N+](=O)[O-])c2nc(C)n(CC3CC3)c2c1 [Example Compound 14, 4-(1-(cyclopropylmethyl)-2-methyl-4-nitro-1H-benzo[d]imidazol-6-yl)-3,5-dimethylisoxazole] | 3 to 30 | 0.3 to 3 | 0.3 to 3 | ≤ 0.3 | 
Cc1noc(C)c1-c1cnc2nc(N3CCC3)n(CC3CCC3)c2c1 [compound 211, 4-(2-(azetidin-1-yl)-1-(cyclobutylmethyl)-1H-imidazo[4,5-b]pyridin-6-yl)-3,5-dimethylisoxazole] | ≤ 0.3 | ≤ 0.3 | 0.3 to 3 | ≤ 0.3 | 
Cc1noc(C)c1-c1cc(N)c2nc(N3CCN(C)CC3)n(Cc3ccccc3)c2c1 [compound 141, 1-benzyl-6-(3,5-dimethylisoxazol-4-yl)-2-(4-methylpiperazin-1-yl)-1H-benzo[d]imidazol-4-amine] | ≤ 0.3 | ≤ 0.3 | ≤ 0.3 | ≤ 0.3 | 
Cc1noc(C)c1Cn1c(C)nc2ncc(-c3c(C)noc3C)cc21 [Example Compound 60, 4-((6-(3,5-dimethylisoxazol-4-yl)-2-methyl-1H-imidazo[4,5-b]pyridin-1-yl)methyl)-3,5-dimethylisoxazole] |  | 0.3 to 3 | 3 to 30 | 0.3 to 3 | Not active
Cc1noc(C)c1-c1cc(N)c2nc(NCc3ccccc3)n(Cc3ccccc3)c2c1 [compound 152, N2,1-dibenzyl-6-(3,5-dimethylisoxazol-4-yl)-1H-benzo[d]imidazole-2,4-diamine] | 0.3 to 3 | ≤ 0.3 | ≤ 0.3 | ≤ 0.3 | 
Cc1noc(C)c1-c1cnc2c(c1)ncn2Cc1ccccc1 [Example Compound 4, 4-(3-Benzyl-3H-imidazo[4,5-b]pyridin-6-yl)-3,5-dimethylisoxazole] | 3 to 30 | 0.3 to 3 | 0.3 to 3 | 0.3 to 3 | 
